Source: patent US12410155B2, “Salt form and crystal form of tetrahydrocyclohepta indazole compound” (Zhejiang Yangli Pharmaceutical Technology Co., Ltd., priority 2021, dated 2025)

What was measured:
CAMA-1 cells = test: CAMA-1 cell proliferation inhibition assay (CTG); type: cell-based; settings: Homo sapiens, 1 nM estradiol
Method: (4) MCF-7, T-47D, and CAMA-1 Cell Proliferation Inhibition Assay
CAMA-1: EMEM (without phenol red) containing 10% charcoal-stripped serum (500 mL culture medium containing 440 mL EMEM, 50 mL charcoal-stripped serum, 5 mL NEAA, 5 mL 100 mM sodium pyruvate).
The inhibitory effect of the test compound of formula (I) on the proliferation of MCF-7, CAMA-1, and T-47D cells was analyzed. For MCF-7 cells, ten concentration gradients ranging from 100 nM to 0.0003815 nM were tested, with three replicates for each concentration. For CAMA-1 cells, nine concentration gradients ranging from 100 nM to 0.001526 nM were tested, also with three replicates for each concentration. For T-47D cells, nine concentration gradients ranging from 2 μM to 0.00512 nM were tested, with three replicates for each concentration. Each experiment was conducted twice independently.
The CAMA-1 cells were treated with starvation medium for three days, followed by trypsin digestion, centrifugation, resuspension, and counting. Cell suspensions were prepared using the corresponding culture medium, and 80 μL of the suspension was added to each well of a 96-well plate. The plate was then incubated at 37° C. in a cell incubator with 5% CO2. The test compound of formula (I) was dissolved in DMSO to an initial concentration of 20 μM and subjected to a 4-fold serial dilution to achieve nine different concentrations. After overnight incubation, the diluted compound was further diluted with the corresponding cell culture medium. The resulting mixture was transferred to the respective wells of the cell plate, starting with a final concentration of 100 nM, followed by a 4-fold serial dilution to achieve nine concentrations. The positive control wells contained 2 μM fulvestrant, and 1 nM estradiol was added to the entire plate. […]
After incubation for the specified time, the cell culture plate was removed, and the CTG reagent was added. […] The readings were taken using the Envision multi-label analyzer. […]

CYP3A = CYP3A (Homo sapiens, UniProt P08684); test: Inhibition of cytochrome P450 isozymes in human liver microsomes, CYP3A; type: in vitro ADME
Sequence of CYP3A (P08684 2-503): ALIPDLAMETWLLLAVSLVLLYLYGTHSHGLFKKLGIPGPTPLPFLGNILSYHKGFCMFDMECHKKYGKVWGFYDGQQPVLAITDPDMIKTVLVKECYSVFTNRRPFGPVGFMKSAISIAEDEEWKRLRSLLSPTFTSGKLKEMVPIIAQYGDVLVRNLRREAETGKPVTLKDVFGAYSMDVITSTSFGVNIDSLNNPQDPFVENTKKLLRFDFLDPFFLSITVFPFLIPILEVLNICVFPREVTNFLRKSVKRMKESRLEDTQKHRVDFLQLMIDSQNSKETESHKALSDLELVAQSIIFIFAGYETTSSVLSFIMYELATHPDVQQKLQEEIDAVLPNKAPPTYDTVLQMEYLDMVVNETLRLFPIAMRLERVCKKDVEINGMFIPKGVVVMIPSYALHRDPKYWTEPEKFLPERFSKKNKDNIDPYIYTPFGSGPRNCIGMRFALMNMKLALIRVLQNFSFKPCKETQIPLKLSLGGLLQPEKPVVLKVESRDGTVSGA
Method: (1) Study on the Inhibition of Cytochrome P450 Isozymes
The probe substrate, test compound, human liver microsomes, and cofactors were incubated together. The concentration of the metabolic product of the probe substrate was detected using LC-MS/MS to calculate the IC50 values. In the vehicle control samples, the test compound was replaced with an equal volume of vehicle, and the enzyme activity of the vehicle control samples was set as 100%. […]
Upon reaching the respective reaction times for the incubation systems of the various isoenzymes, 200 μL of termination solution containing the appropriate internal standard was added to the reaction plate to terminate the reaction. […] The metabolites of the probe substrates were then analyzed using LC-MS/MS. […]
The activity of various CYP isoenzymes was reflected by the production rate of metabolites from each probe substrate. […] The residual activity percentage of each isoenzyme was determined by comparing the metabolite production rate of the probe substrate in the presence of different concentrations of the test compound or positive inhibitor to that of the vehicle control samples, then multiplying by 100%. […]

**Q.** With `FCCCN1CC[C@H](Nc2cnc(C3=C(CC(F)(F)F)CCCc4c3ccc3[nH]nc(F)c43)cn2)C1` [Compound of formula (I)] as the compound, how does the IC50 (CAMA-1 cells; CAMA-1, First experiment) read?
**A.** The IC50 was 1.19 nM.

**Q.** What about the IC50 (CAMA-1 cells; CAMA-1, Mean ± SD) of the same compound?
**A.** The IC50 was 1.29 ± 0.1 nM.

**Q.** What about the IC50 (CAMA-1 cells; CAMA-1, Second experiment) of the same compound?
**A.** The IC50 was 1.39 nM.

**Q.** And the IC50 at 3 min (CYP3A; probe midazolam, midazolam as the substrate)?
**A.** Its IC50 at 3 min is 8380 nM.

**Q.** What about the IC50 at 10 min (CYP3A; probe testosterone, testosterone as the substrate) of the same compound?
**A.** The IC50 at 10 min was 10900 nM.
